# Measured values as given in patent publication US6395906B1, “Intermediates to pesticidal 1-arylpyrazoles” (Rhone-Poulenc Inc., priority 1995, dated 2002).
# Tests used:
# Format in all cases: in vivo
# [1] = tested on: western corn rootworm (Diabrotica virgifera virgifera); assay: Western corn rootworm (WCRW) soil test; details: soil concentration 0.15 or 0.5 ppm; neonate larvae, mortality six days after infestation
# Method: (§1) For the tick, aphids, souther armyworm, tobacco budworm, house fly, Mexican bean beetle, American cockroach, cat flea, souther corn rootworm, western corn rootworm, black cutworm, and southern root-knot nematode, a solution or suspension was prepared by adding the test compound to a solution of dimethylformamide, acetone, emulsifiers which are alkylaryl polyether alcohols organic sulfonates, and water. The result was a 100 or 500 ppm concentration of the test compound.
# For the western corn rootworm test, the water-acetone-DMF-emulsifier solution was adjusted for a treatment rate of 0.15 or 0.5 ppm.
# Western corn rootworm (WCRW): The 500 ppm test formulation was applied to dry sandy loam soil contained in a glass jar for a soil concentration of 0.15 or 0.5 ppm. As an untreated control, an aliquot of a water-acetone-DMF-emulsifier solution containing no test compound was applied in a similar manner. After incubating covered for 24 hours, the soil was mixed and four germinated corn seedlings were added to the jar. Ten neonate western corn rootworm larvae were placed in the jar. Six days after infestation, mortality was assessed by Berlese funnel extraction.
# [2] = tested on: house fly (Musca domestica); assay: House fly (HF) bait test; details: sucrose bait, 100 or 250 ppm; adult flies, mortality after 24 hours
# Method: as §1
# For house fly tests, the water-acetone-DMF-emulsifier solution was adjusted with a 20% by weight aqueous solution of sucrose to provide a final 100 or 250 ppm concentration of the test compound.
# House fly (HF): Four to six day old adult house flies were used. The files were immobilized by anesthetizing with carbon dioxide. A bait cup was prepared which contained the 100 or 250 ppm test compound formulation/sucrose solution and one or two absorbent cotton pad(s). As an untreated control, a water-acetone-DMF-emulsifier-sucrose solution containing no test compound was applied in a similar manner. The bait cup was introduced inside the cage prior to admitting 12-25 anesthetized flies. Mortality was assessed after 24 hours.
# [3] = tested on: cotton aphid (Aphis gossypii); assay: Cotton aphid (CA) foliar spray test; details: cotton plants wet to runoff, 100 or 500 ppm; dead aphids counted after three days
# Method: as §1
# Buckthorn aphid (BA) or cotton aphid (CA): Adult and nymphal stages of buckthorn or cotton aphid were reared on potted dwarf nasturtium or cotton plants, respectively. Plants infested with 100-150 aphids were wet to runoff with the 100 or 500 ppm test compound formulation. As an untreated control, a water-acetone-DMF-emulsifier solution containing no test compound was also applied to runoff to infested plants. The treated plants were stored for one day for buckthorn aphid and three days for cotton aphid, after which the dead aphids were counted.
# [4] = tested on: southern armyworm (Spodoptera eridania); assay: Southern armyworm (SAW) treated bean leaf test; details: bean leaves, 100 or 500 ppm; second instar larvae, five days
# Method: as §1
# Southern armyworm (SAW), Mexican bean beetle (MBB): Bean leaves were wet to runoff with the 100 or 500 ppm test compound formulation. As an untreated control, a water-acetone-DMF-emulsifier solution containing no test compound was also applied wet to runoff to bean leaves. Five or six randomly selected second instar southern armyworn larvae or Mexican bean bettle larvae were introduced into each plastic container with the dry treated leaves. The container was closed and held for five days. Larvae which were unable to move the length of the body, even upon stimulation by prodding, were considered dead.
# [5] = tested on: southern corn rootworm (Diabrotica undecimpunctata howardi); assay: Southern corn rootworm (SCRW) soil test; details: soil concentration 2.5, 5, 6.75 or 10 ppm; mortality eight days after infestation
# Method: as §1
# For southern corn rootworm and black cutworm tests, the water-acetone-DMF-emulsifier solution was adjusted for a treatment rate of 2.5, 5, 6.75 or 10 ppm.
# Southern corn rootworm (SCRW), Black cutworm (BCW): Corn seeds were placed in a glass jar and covered with dry sandy loam soil. The 500 ppm test formulation was applied for a soil concentration of 2.5, 5, 6.75 or 10 ppm. As an untreated control, an aliquot of a water-acetone-DMF-emulsifier solution containing no test compound was applied in a similar manner. After incubating covered for 24 hours, the soil was mixed and inoculated with approximately 25 southern corn rootworm eggs. Following an additional 48 hours, two late second to early third instar black cutworms were placed in the jar with a portion of insect diet. Eight days after infestation, mortality was assessed visually for cutworm and by Berlese funnel extraction for rootworm.
# [6] = tested on: southern root-knot nematode (Meloidogyne incognita); assay: Southern root-knot nematode (SRKN) soil test; details: soil treatment 23 kg/ha; tomato or cotton root galling rated after 2-3 weeks
# Method: as §1
# For the southern root-knot nematode tests, the water-acetone-DMF-emulsifier solution was adjusted for a treatment rate of 23 kg/ha soil concentration.
# Southern root-knot nematode (SRKN): Eggs and second stage juveniles (J2s) of southern root-knot nematodes were obtained from infected roots of reared tomato plants. Pots containing moist soil were treated with the test compound solution for a treatment rate of 23 kg/ha. As an untreated control, an aliquot of a water-acetone-DMF-emulsifier solution containing no test compound was applied in a similar manner. Immediately after treatment, eggs or J2s of southern root-knot nematode were added to the treated soil. For test with cotton, the seeds were placed on top of the soil the day of treatment and inoculation. For the tests with tomato, the seedlings were transplanted in the pot three days after treatment. The pots were kept in the greenhouse for 2-3 weeks. At the termination of the test, roots of the tomato or cotton seedlings were evaluated for galling on a rating scale from 1 to 5 with one equal to severe galling, relative to untreated control, and five to no galling, i.e., complete control.
# [7] = tested on: American cockroach (Periplaneta americana); assay: American cockroach (ACR) treated food pellet test; details: food pellets with 500 ppm formulation; nymphs, contact and feeding mortality 1 and 5 days after infestation
# Method: as §1
# American cockroach (ACR): Cat food or dog food pellets were added to jars containing 1-2 mls of the 500 ppm test formulation. As an untreated control, an aliquot of a water-acetone-DMF-emulsifier solution containing no test compound was applied in a similar manner. After 48 hours, roach nymphs were added to the jar. Contact and feeding mortally was assessed 1 and 5 days after infestation.
# [8] = tested on: tobacco budworm (Heliothis virescens); assay: Tobacco budworm (TBW) treated cotton leaf test; details: cotton leaves, 100 ppm; second instar larvae, five days
# Method: as §1
# Tobacco budworm (TBW): Cotton leaves were wet to runoff with the 100 ppm test compound formulation. As an untreated control, a water-acetone-DMF-emulsifier solution containing no test compound was also applied wet to runoff to cotton leaves. Ten randomly selected second instar tobacco budworm larvae were introduced into plastic containers in which moist dental wicks and the dry treated leaves had been placed. The cups were closed and held for five days. Larvae which were unable to move the length of the body, even upon stimulation by prodding, were considered dead.
smiles,measurement,setting,value
"N#Cc1nn(-c2c(Cl)cc(C(F)(F)F)cc2Cl)c(C=O)c1SC(F)(F)F [Compound 2, 3-Cyano-1-(2,6-dichloro-4-trifluoromethylphenyl)-5-formyl-4-trifluoromethylthiopyrazole]",WCRW,[1],+ (active against 1 or more insects described above up to 100% mortality. This activity is indicated by a “+”)
"COC(OC)c1c(SC(F)(F)F)c(C#N)nn1-c1c(Cl)cc(C(F)(F)F)cc1Cl [Compound 4, 3-Cyano-1-(2,6-dichloro-4-trifluoromethylphenyl)-5-dimethoxymethyl-4-trifluoromethylthiopyrazole]",WCRW,[1],+ (active against 1 or more insects described above up to 100% mortality. This activity is indicated by a “+”)
"COC(C#N)c1c(SC(F)(F)F)c(C#N)nn1-c1c(Cl)cc(C(F)(F)F)cc1Cl (stereo not shown) [Compound 6, 3-Cyano-5-{(1-cyano-1-methoxy)methyl}-1-(2,6-dichloro-4-trifluoromethylphenyl)-4-trifluoromethylthiopyrazole]",HF,[2],+ (active against 1 or more insects described above up to 100% mortality. This activity is indicated by a “+”)
same,CA,[3],+ (active against 1 or more insects described above up to 100% mortality. This activity is indicated by a “+”)
same,SAW,[4],+ (active against 1 or more insects described above up to 100% mortality. This activity is indicated by a “+”)
same,SCRW,[5],+ (active against 1 or more insects described above up to 100% mortality. This activity is indicated by a “+”)
same,WCRW,[1],+ (active against 1 or more insects described above up to 100% mortality. This activity is indicated by a “+”)
"CN(C)N=Cc1c(SC(F)(F)F)c(C#N)nn1-c1c(Cl)cc(C(F)(F)F)cc1Cl [Compound 11, 3-Cyano-1-(2,6-dichloro-4-trifluoromethylphenyl)-5-(N,N-dimethylaminoiminomethylidenyl)-4-trifluoromethylthiopyrazole]",HF,[2],+ (active against 1 or more insects described above up to 100% mortality. This activity is indicated by a “+”)
same,SCRW,[5],+ (active against 1 or more insects described above up to 100% mortality. This activity is indicated by a “+”)
same,WCRW,[1],+ (active against 1 or more insects described above up to 100% mortality. This activity is indicated by a “+”)
"COC(OC)c1c([S+]([O-])C(F)(F)F)c(C#N)nn1-c1c(Cl)cc(C(F)(F)F)cc1Cl (stereo not shown) [Compound 13, 3-Cyano-1-(2,6-dichloro-4-trifluoromethylphenyl)-5-dimethoxymethyl-4-trifluoromethylsulfinylpyrazole]",CA,[3],+ (active against 1 or more insects described above up to 100% mortality. This activity is indicated by a “+”)
same,SRKN,[6],+ (active against 1 or more insects described above up to 100% mortality. This activity is indicated by a “+”)
same,WCRW,[1],+ (active against 1 or more insects described above up to 100% mortality. This activity is indicated by a “+”)
same,ACR,[7],+ (active against 1 or more insects described above up to 100% mortality. This activity is indicated by a “+”)
same,TBW,[8],+ (active against 1 or more insects described above up to 100% mortality. This activity is indicated by a “+”)
"COC(OC)c1c(S(=O)(=O)C(F)(F)F)c(C#N)nn1-c1c(Cl)cc(C(F)(F)F)cc1Cl [Compound 15, 3-Cyano-1-(2,6-dichloro-4-trifluoromethlphenyl)-5-dimethoxymethyl-4-trifluoromethylsulfonylpyrazole]",HF,[2],+ (active against 1 or more insects described above up to 100% mortality. This activity is indicated by a “+”)
same,CA,[3],+ (active against 1 or more insects described above up to 100% mortality. This activity is indicated by a “+”)
same,SRKN,[6],+ (active against 1 or more insects described above up to 100% mortality. This activity is indicated by a “+”)
same,SAW,[4],+ (active against 1 or more insects described above up to 100% mortality. This activity is indicated by a “+”)
same,SCRW,[5],+ (active against 1 or more insects described above up to 100% mortality. This activity is indicated by a “+”)
same,WCRW,[1],+ (active against 1 or more insects described above up to 100% mortality. This activity is indicated by a “+”)
same,ACR,[7],+ (active against 1 or more insects described above up to 100% mortality. This activity is indicated by a “+”)
"COC(C#N)c1c(S(=O)(=O)C(F)(F)F)c(C#N)nn1-c1c(Cl)cc(C(F)(F)F)cc1Cl (stereo not shown) [Compound 16, 3-Cyano-5-{(1-cyano-1-methoxy)methyl}-1-(2,6-dichloro-4-trifluoromethylphenyl)-4-trifluoromethylsulfonylpyrazole]",HF,[2],+ (active against 1 or more insects described above up to 100% mortality. This activity is indicated by a “+”)
same,SAW,[4],+ (active against 1 or more insects described above up to 100% mortality. This activity is indicated by a “+”)
same,SCRW,[5],+ (active against 1 or more insects described above up to 100% mortality. This activity is indicated by a “+”)
same,WCRW,[1],+ (active against 1 or more insects described above up to 100% mortality. This activity is indicated by a “+”)
same,ACR,[7],+ (active against 1 or more insects described above up to 100% mortality. This activity is indicated by a “+”)
same,TBW,[8],+ (active against 1 or more insects described above up to 100% mortality. This activity is indicated by a “+”)
